This note sets out measurements from patent publication US20240116923A1, “USE OF INDOLE, 6- AND 7-AZAINDOLE DERIVATIVES AS INHIBITORS OF FERROPTOSIS REGULATED CELL DEATH” (Seabelife, priority 2021, published 2024).

Each structure is given as a SMILES string.

One data set deals with Abca4−/−Rdh8−/− mice. Description: In vivo model of Stargardt's disease and AMD, blue light damage, ERG and OCT. The protocol:
As described in Parmar et al., Invest Ophthalmol Vis Sci., 2016, 57(7), mice lacking ATP-binding cassette transporter 4 (ABCA4) and retinol dehydrogenase 8 (RDH8) mimic features of human Stargardt's disease and age-related macular degeneration. Intense light exposure can accelerate retinal degeneration in Abca4^−/−Rdh8^−/− mice.
Blue light damage (BLD) experiments are performed on 7-week-old Abca4−/−Rdh8−/− mice. The animals were adapted to low light levels (4000 lux, 30 minutes). Six days after BLD, an optical coherence tomography (OCT) examination of each eye is performed, which provides a “snapshot” of the state of the retinal cell layers in living mice. OCT is based on the use of a low coherence interferometer. This imaging technique allows in vivo cross-sectional images of tissues to be taken with a resolution of a few microns. It is performed under light gas anaesthesia (5% isoflurane at induction then 2% during maintenance) and is non-invasive. The pupils of the mice are dilated with 0.5% Midriaticum. A representative image of each eye was extracted and included in separate report documents (4 OCT attachments). The following day, measurements of the electrical activity of the retina were made by measuring scotopic and photopic electroretinograms (ERG). The scotopic ERG is performed after a night in the dark in order to measure the electrical response of the rods which represent 97% of the photoreceptors in the mouse. At higher intensities, the cones also respond. This is followed by a photopic ERG which records the response of the cones only. Three measurements corresponding to the activity of 1) rod and cone photoreceptors, 2) inner retinal bipolar cells and 3) cones only, are obtained. The eyes are then harvested and prepared for subsequent histological analysis. In the IP experiments, one eye is dissected and the retina and RPE are frozen separately. These tissues can be used for further measurements.
Compound 1 in powder form is taken up in DMSO in order to obtain a solution at 20 mM. These solutions are stored at −20° C. and are thawed extemporaneously to prepare a solution diluted 89 times in PBS. These solutions give a final concentration in the eye of around 50 μM for compound 1, and 0.25% DMSO. A vehicle is prepared from pure DMSO to achieve a final 0.25% in the vitreous. Mice are lightly anaesthetised with isoflurane during the IVT procedure. A volume of 1.5 μL is injected into the vitreous of the left eye.
In order to measure the thickness of the retina and the photoreceptor layer, image processing was performed using Image J software. The thickness of the whole retina is measured between the outer segment layer and the ganglion cell layer. The thickness of the photoreceptor layer is measured between the outer plexiform layer and the outer segment layer. On average 6 measurements are made along the length of an OCT image representing an upper or lower half-retina. In order to prepare plates of sections of the eyes from the SBL2 IVT experiment, one eye corresponding to each condition was cut on the cryostat, i.e. one NINI eye and both eyes of an SBL2-injected mouse (I and NI).
The solutions are prepared extemporaneously from water-soluble lyophilisates of compound 7 (SBL1)-cyclodextrin (final CD concentration, 15%) and the corresponding placebos. The solutions are prepared by injecting a predefined volume of 0.9% NaCl into the vial. The vial is then vortexed and the solution is filtered into a new sterile tube. Two groups of 3 mice are used for these tests. The group received either SBL1 (20 mg/kg) (n=3) or placebo-SBL1 (n=3). The volume to be injected is calculated according to the weight of the mice and corresponds to 10 ml/kg. Mice were injected 3 and 1 h before and 1 and 3 h after the start of the BLD.

Data set [1] has as its system Primary cultures of porcine RPE. In words: Cellular model of retinal pigment epithelium (RPE) phototoxicity (A2E + blue light). The class given is cell-based. The conditions noted are these: 10 and 30 μM, A2E 30 μM + blue light, 24 h after induction; FIG. 29. The protocol:
Primary cultures of porcine RPE are prepared weekly and run on 96-well culture plates after one week in vitro. The cells are incubated with the molecule 10 minutes before induction of phototoxicity. A2E (30 μM) is added to the culture medium 19 hours before cell illumination by a device equipped with blue light emitting leds (λ=[…]). Cell survival and death are detected 24 hours after induction of phototoxicity by staining cells with Hoechst (a nuclear marker) and ethidium (a marker for dead cell nuclei). Images of each well are acquired on a fluorescence microscope equipped with a motorised stage driven by Metamorph software, and cell survival is quantified by inhouse program. The molecules are tested at 10 and 30 μM unless toxicity at this concentration. The negative control corresponds to cells treated with A2E and vehicle. The positive control corresponds to cells treated with A2E and crocetin (100 μM) 48 h before illumination. The treatments are done in quadruplicate and the experiments are performed 4 times.

`Oc1ccc(-c2cc3ccccc3[nH]2)cc1` [Compound 1, 4-(1H-indol-2-yl)phenol]: the “electrical response of retinal cells (scotopic and photopic ERG)” value with Abca4−/−Rdh8−/− mice (intravitreal injection, 50 μM in the eye, after blue light damage) is on record as “appears to preserve the electrical response of retinal cells”. Further, in the data set on Abca4−/−Rdh8−/− mice (intravitreal treatment, FIG. 33), the “thickness of the retinas from OCT, injected versus non-injected eyes” value was “significant difference”. Besides, the “photopic ERG, injected vs non-injected eyes” value in the data set with Abca4−/−Rdh8−/− mice (intravitreal, 50 μM, 30 cd·s/m2, FIG. 30) is on record as “partially preserved”. Besides, the “scotopic ERG B wave, injected vs uninjected eyes” value in the data set with Abca4−/−Rdh8−/− mice (intravitreal, 50 μM, p=0.048 vs VEH NI at 30 cd·s/m2, FIG. 32) was “appears preserved”. The “scotopic ERG A wave, injected eye vs vehicle-injected eye” value with Abca4−/−Rdh8−/− mice (intravitreal, 50 μM, significant (P=0.0206) vs VEH NI at 10 cd·s/m2, FIG. 31) is listed as “a clear difference is observed”. Moreover, the “cell survival of RPE cells after induction of phototoxicity” value in data set [1] is “protect RPE cells significantly against phototoxicity”.

`Oc1ccc(-c2cc3cccnc3[nH]2)cc1` [Compound 7, 4-(1H-pyrrolo[2,3-b]pyridin-2-yl)phenol]: the “electrical response of retinal cells (scotopic and photopic ERG) compared to placebo” value with Abca4−/−Rdh8−/− mice (intraperitoneal 20 mg/kg, 3 and 1 h before and 1 and 3 h after start of BLD, cyclodextrin lyophilisate) was “slightly protect the electrical response of retinal cells”. Besides, in the data set on Abca4−/−Rdh8−/− mice (intraperitoneal 20 mg/kg, FIG. 35), the “scotopic B wave at higher intensities (inner retina response)” value is “protective trend”. Also, in the data set with Abca4−/−Rdh8−/− mice (intraperitoneal 20 mg/kg, FIGS. 34 & 35), the “scotopic ERG response to the 30 cd·s/m^2 flash intensity (mixed rod-cone response)” value is given as “protective trend”. In the data set on Abca4−/−Rdh8−/− mice (intraperitoneal treatment, FIG. 36), the “whole retinal thickness from OCT, injected vs non-injected mice” value is “a difference between the whole retinas of injected and non-injected mice”.
